Measurements taken from PubChem BioAssay AID613 (The Scripps Research Institute Molecular Screening Center, 2007).
The source made the active and inactive calls.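 The calls were made as follows: active = EC50 at or below 10 micromolar; inactive = EC50 above 10 micromolar.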

Molecular target: 5-hydroxytryptamine receptor 1A (Homo sapiens) (UniProt P08908)
Experiment: human 5-HT1a agonist potency, dose response, cell-based, CHO, Ga15 NFAT-bla reporter (AID 613)
Details: CHO 5-HT1a Ga15 NFAT-bla reporter, agonist FRET

Sequence of 5-hydroxytryptamine receptor 1A (Homo sapiens) (P08908 whole entry, looked up): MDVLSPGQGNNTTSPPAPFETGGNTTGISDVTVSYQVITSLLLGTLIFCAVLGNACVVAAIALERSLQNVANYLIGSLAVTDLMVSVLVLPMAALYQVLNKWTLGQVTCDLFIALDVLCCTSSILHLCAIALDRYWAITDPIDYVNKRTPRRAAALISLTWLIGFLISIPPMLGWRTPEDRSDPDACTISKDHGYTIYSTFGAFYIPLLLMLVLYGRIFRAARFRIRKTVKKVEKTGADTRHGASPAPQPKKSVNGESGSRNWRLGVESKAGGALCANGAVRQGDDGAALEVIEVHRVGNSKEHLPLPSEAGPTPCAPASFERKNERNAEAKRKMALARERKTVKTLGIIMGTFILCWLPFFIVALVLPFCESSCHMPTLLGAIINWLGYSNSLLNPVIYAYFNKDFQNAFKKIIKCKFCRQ

| EC50 | Structure (SMILES) |
| --- | --- |
| > 99 µM (inactive) | CCN(CC)c1ccc2cc(C(=O)Nc3ccccn3)c(=O)oc2c1 |
| > 99 µM (inactive) | COc1ccc(N=c2oc3cc(O)ccc3cc2C(=O)NCC2CCCO2)c(OC)c1 (stereo unspecified) |
| inactive | COc1ccccc1N=c1oc2cc(O)ccc2cc1C(N)=O |
| inactive | NC(=O)c1cc2ccc(O)cc2oc1=NCc1ccccc1 |
| inactive | Cc1cccc(N=c2oc3cc(O)ccc3cc2C(N)=O)c1 |
| inactive | Cc1ccc(N=c2oc3cc(O)ccc3cc2C(N)=O)cc1 |
| inactive | NC(=O)c1cc2ccc(O)cc2oc1=Nc1ccccc1 |
| inactive | COc1ccccc1N=c1oc2cc(O)ccc2cc1C(=O)NCC1CCCO1 (stereo unspecified) |
| > 99 µM (inactive) | COc1ccc(N=c2oc3cc(O)ccc3cc2C(=O)NCC2CCCO2)cc1 (stereo unspecified) |
| > 99 µM (inactive) | COc1ccc(OC)c(N=c2oc3cc(O)ccc3cc2C(N)=O)c1 |

Second part, the compound before the results:

| Structure (SMILES) | EC50 |
| --- | --- |
| Cc1ccc(C2C3CN(C(C)C)CC=C3C(C#N)=C(N)C2(C#N)C#N)cc1 (stereo unspecified) | inactive |
| Cc1noc(NS(=O)(=O)c2ccc(N3CC(O)=C(c4ccccc4)C3=N)cc2)c1C | > 99 µM (inactive) |
| CCSCCOC(=O)C1=C(C)NC(=O)NC1c1ccc2c(c1)OCO2 (stereo unspecified) | > 99 µM (inactive) |
| N#CC1=C(N)N(c2ccccc2)C(c2ccco2)C1(C#N)C#N (stereo unspecified) | > 99 µM (inactive) |
| CCOC(=O)c1sc2c(c1C)C(c1cccs1)C1=C(CCCC1=O)N2 (stereo unspecified) | > 33 µM (inactive) |
| CCCCOc1ccc(C2C3CN(C(=O)OCC)CC=C3C(C#N)=C(N)C2(C#N)C#N)cc1OC (stereo unspecified) | > 99 µM (inactive) |
| CN(C)CCCN1C(=O)C(=O)/C(=C(/O)c2ccc3c(c2)OCCO3)C1c1ccccn1 (stereo unspecified) | > 99 µM (inactive) |
| N#C/C(=C(/O)COC(=O)Cc1c[nH]c2ccccc12)c1nc2ccccc2[nH]1 | > 99 µM (inactive) |
| CC(C)N1CC=C2C(C#N)=C(N)C(C#N)(C#N)C(c3ccccc3)C2C1 (stereo unspecified) | inactive |
| CCCCCCc1cc2cc(C(=O)NC)c(=N)oc2cc1O | inactive |
| CCCCCCc1cc2cc(-c3nnc(-c4ccccc4O)o3)c(=O)oc2cc1O | > 99 µM (inactive) |
| Nc1nonc1/C(=N/O)N1CCCC1 | > 99 µM (inactive) |
| COCCOC(=O)C1=C(C)Nc2nc(C)nn2C1c1ccc(F)cc1 (stereo unspecified) | > 99 µM (inactive) |
| Cc1ccc(N2C(=O)CC(N3CCN(C4CCc5ccccc5C4)CC3)C2=O)cc1 (stereo unspecified) | > 99 µM (inactive) |
| C=CCOc1cccc(C2C(C(=O)c3ccco3)=C(O)C(=O)N2CCN(CC)CC)c1 (stereo unspecified) | > 99 µM (inactive) |
| CN(C)c1ccc(C2C=C(c3ccc(Cl)cc3OC(F)F)Nc3ncnn32)cc1 (stereo unspecified) | > 99 µM (inactive) |
